# According to PubChem BioAssay AID2060615 (Molecular Pharmacology Branch, DTP, NCI, 2025):
# System: 496974-208-R-J2-PDC complex spheroids, growth % test/control
# Experiment: Anticancer human tumor 496974-208-R-J2-PDC patient-derived pancreatic carcinoma cell line growth inhibition [CLK]
# Conditions: for IC50: curve of first compound; for viability, T/C: stronger effect = lower value
# Method in brief: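 Multi-cell-type spheroids combined patient-derived tumor cells with HUVEC endothelial cells and human mesenchymal stem cells. Paired agents were dosed in half-log steps down from about clinical Cmax, or from 10 microM where Cmax was unknown.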
# [1] = second compound 0.0316 µM, first compound 0.0316 µM
# [2] = second compound 0.0316 µM, first compound 0.1 µM
# [3] = second compound 0.0316 µM, first compound 0.316 µM
# [4] = second compound 0.0316 µM, first compound 1 µM
# [5] = second compound 0.0316 µM, first compound 3.16 µM
# [6] = second compound 0.0316 µM, first compound 10 µM
# [7] = second compound 0.1 µM, first compound 0.0316 µM
# [8] = second compound 0.1 µM, first compound 0.1 µM
# [9] = second compound 0.1 µM, first compound 0.316 µM
# [10] = second compound 0.1 µM, first compound 1 µM
# [11] = second compound 0.1 µM, first compound 3.16 µM
# [12] = second compound 0.1 µM, first compound 10 µM
# [13] = second compound 0.316 µM, first compound 0.0316 µM
# [14] = second compound 0.316 µM, first compound 0.1 µM
# [15] = second compound 0.316 µM, first compound 0.316 µM
# [16] = second compound 0.316 µM, first compound 1 µM
# [17] = second compound 0.316 µM, first compound 3.16 µM
# [18] = second compound 0.316 µM, first compound 10 µM
# [19] = second compound 1 µM, first compound 0.0316 µM
# [20] = second compound 1 µM, first compound 0.1 µM
# [21] = second compound 1 µM, first compound 0.316 µM
# [22] = second compound 1 µM, first compound 1 µM
# [23] = second compound 1 µM, first compound 3.16 µM
# [24] = second compound 1 µM, first compound 10 µM
# [25] = second compound 3.16 µM, first compound 0.0316 µM
# [26] = second compound 3.16 µM, first compound 0.1 µM
# [27] = second compound 3.16 µM, first compound 0.316 µM
# [28] = second compound 3.16 µM, first compound 1 µM
# [29] = second compound 3.16 µM, first compound 3.16 µM
# [30] = second compound 3.16 µM, first compound 10 µM
# [31] = second compound 10 µM, first compound 0.0316 µM
# [32] = second compound 10 µM, first compound 0.1 µM
# [33] = second compound 10 µM, first compound 0.316 µM
# [34] = second compound 10 µM, first compound 1 µM
# [35] = second compound 10 µM, first compound 3.16 µM
# [36] = second compound 10 µM, first compound 10 µM
# 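Note: spheroids exposed to the drugs for 7 days before readout.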
# 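Throughout, for viability, T/C: 100% = DMSO vehicle control wells.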
smiles,measurement,setting,value
C#Cc1c(F)ccc2cc(O)cc(-c3ncc4c(N5CC6CCC(C5)N6)nc(OCC56CCCN5CC(F)C6)nc4c3F)c12 (centres undefined) + CNC(=O)c1ccc(Nc2nc(OC3CCCC3)c3c(-c4ccc5nc(C)oc5c4)c[nH]c3n2)c(OC)c1,IC50,second compound 0.0316 µM,0.204 µM
same,IC50,second compound 0.1 µM,0.0335 µM
same,IC50,second compound 0.316 µM,< 0.0316 µM
same,IC50,second compound 1 µM,< 0.0316 µM
same,IC50,second compound 3.16 µM,< 0.0316 µM
same,IC50,second compound 10 µM,< 0.0316 µM
same,"viability, T/C",[1],62.4%
same,"viability, T/C",[2],56.8%
same,"viability, T/C",[3],46.1%
same,"viability, T/C",[4],42.2%
same,"viability, T/C",[5],42.9%
same,"viability, T/C",[6],41%
same,"viability, T/C",[7],57.7%
same,"viability, T/C",[8],46.7%
same,"viability, T/C",[9],35%
same,"viability, T/C",[10],37.2%
same,"viability, T/C",[11],34.6%
same,"viability, T/C",[12],43.1%
same,"viability, T/C",[13],45.2%
same,"viability, T/C",[14],40.2%
same,"viability, T/C",[15],37.2%
same,"viability, T/C",[16],33%
same,"viability, T/C",[17],33.5%
same,"viability, T/C",[18],31%
same,"viability, T/C",[19],37.8%
same,"viability, T/C",[20],32.5%
same,"viability, T/C",[21],31.2%
same,"viability, T/C",[22],28.1%
same,"viability, T/C",[23],31.3%
same,"viability, T/C",[24],28.4%
same,"viability, T/C",[25],33.5%
same,"viability, T/C",[26],30.4%
same,"viability, T/C",[27],27.2%
same,"viability, T/C",[28],25.8%
same,"viability, T/C",[29],27.6%
same,"viability, T/C",[30],23.8%
same,"viability, T/C",[31],30.1%
same,"viability, T/C",[32],27.9%
same,"viability, T/C",[33],27%
same,"viability, T/C",[34],22.8%
same,"viability, T/C",[35],23.5%
same,"viability, T/C",[36],21.2%
CC(CO)NC(=O)c1cc(-c2ccc(Cl)cc2)nn(-c2cnn(C)c2)c1=O (centres undefined) + CNC(=O)c1ccc(Nc2nc(OC3CCCC3)c3c(-c4ccc5nc(C)oc5c4)c[nH]c3n2)c(OC)c1,IC50,second compound 0.0316 µM,> 10 µM
same,IC50,second compound 0.1 µM,6.65 µM
same,IC50,second compound 0.316 µM,6.97 µM
same,IC50,second compound 1 µM,3.29 µM
same,IC50,second compound 3.16 µM,5.16 µM
same,IC50,second compound 10 µM,4.14 µM
same,"viability, T/C",[1],103%
same,"viability, T/C",[2],91.4%
same,"viability, T/C",[3],92.8%
same,"viability, T/C",[4],90.4%
same,"viability, T/C",[5],89.1%
same,"viability, T/C",[6],55%
same,"viability, T/C",[7],87.3%
same,"viability, T/C",[8],74.5%
same,"viability, T/C",[9],80.8%
same,"viability, T/C",[10],63.1%
same,"viability, T/C",[11],65.4%
same,"viability, T/C",[12],42.6%
same,"viability, T/C",[13],79.2%
same,"viability, T/C",[14],67.3%
same,"viability, T/C",[15],72.6%
same,"viability, T/C",[16],69%
same,"viability, T/C",[17],59.4%
same,"viability, T/C",[18],44.9%
same,"viability, T/C",[19],71%
same,"viability, T/C",[20],71.8%
same,"viability, T/C",[21],63.5%
same,"viability, T/C",[22],59.7%
same,"viability, T/C",[23],50.9%
same,"viability, T/C",[24],37.9%
same,"viability, T/C",[25],62.4%
same,"viability, T/C",[26],57.9%
same,"viability, T/C",[27],52%
same,"viability, T/C",[28],58.4%
same,"viability, T/C",[29],56.6%
same,"viability, T/C",[30],41.1%
same,"viability, T/C",[31],55.5%
same,"viability, T/C",[32],54.8%
same,"viability, T/C",[33],49.8%
same,"viability, T/C",[34],47.1%
same,"viability, T/C",[35],56.5%
same,"viability, T/C",[36],41%
